Bridge positions count the residues as written; N and C are the ends. Ends that are not written are not given here. * marks the point of attachment. DOTA‑PEG4 = alpha-(1,4,7,10-tetraazacyclododecan-1,4,7,10-tetraacetate)-4(ethylene glycol); DOTA = O=C(O)CN1CCN(CC(=O)O)CCN(CC(=O)*)CCN(CC(=O)O)CC1; PEG4 = NCCOCCOCCOCCOCCC(=O)O
Experiments:
human Nectin-4 = molecular target: T1, human Nectin-4 (Homo sapiens, UniProt Q96NY8); assay: Surface plasmon resonance (Biacore T200) binding to human Nectin-4; settings: human Nectin-4, 1:1 binding model, twenty-five degrees Celsius
T1 sequence (Q96NY8 32-510): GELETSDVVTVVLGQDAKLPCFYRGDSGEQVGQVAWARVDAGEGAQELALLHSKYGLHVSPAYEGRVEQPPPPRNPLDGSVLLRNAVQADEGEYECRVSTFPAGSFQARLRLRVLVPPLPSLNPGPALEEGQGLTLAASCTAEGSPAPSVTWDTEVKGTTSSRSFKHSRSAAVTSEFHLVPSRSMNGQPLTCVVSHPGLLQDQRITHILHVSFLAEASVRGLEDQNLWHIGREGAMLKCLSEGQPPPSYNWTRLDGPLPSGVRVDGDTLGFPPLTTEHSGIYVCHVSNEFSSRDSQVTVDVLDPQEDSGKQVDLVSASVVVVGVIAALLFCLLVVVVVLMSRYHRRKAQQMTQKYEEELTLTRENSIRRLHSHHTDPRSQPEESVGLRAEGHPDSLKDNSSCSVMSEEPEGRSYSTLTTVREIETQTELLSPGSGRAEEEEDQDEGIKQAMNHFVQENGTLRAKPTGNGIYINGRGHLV
Method: (§1) Peptide binding affinity to the target protein was measured by SPR using a Biacore T200 instrument. The target protein was covalently coupled to a Biacore chip surface using free amine-coupling chemistry (NHS/EDC) and all uncoupled sites were blocked with ethanolamine. Free peptides were flowed over the target protein surface in increasing concentrations to measure association (KA) and dissociation ([…]) to calculate the equilibrium dissociation constant (KD) using an appropriate binding model (see, e.g., Nikolas Stroth, J Biol Methods. 2016; 3 (1)).
(§2) In all figures (FIGS. 1A, 1B, 2A, and 2B), lines on graphs are labeled from top to bottom, beginning with letter “a,” and the corresponding concentration is noted to the right of the figure, next to the letter designating each line.
Surface plasmon resonance (SPR) analyses were performed using Biacore T200 (GE Healthcare). Target protein (“ligand”) was immobilized to a CM5 Series S sensor chip (Cytiva) using amine-coupling chemistry. Running buffer was 0.05% Surfactant P20 in HEPES buffered saline (HBS-P), pH 7.4 (Cytiva). Immobilization was performed at 25° C. Carboxyl groups in each flow cell were activated using a 1:1 mixture of 0.4 M 1-ethyl-3-(3-dimethylaminopropyl)-carbodiimide in water (EDC) and 0.1 M N-hydroxysuccinimide in water (NHS) for 7 minutes. The ligand was prepared in 10 mM Sodium acetate pH 5 (Cytiva). Pulsatile injections were made to target a specific immobilization level. Any remaining amine-reactive esters on the chip surface were blocked with a 7-minute injection of 1 M ethanolamine, pH 8.5. Three 10-second pulses of 50 mM Sodium hydroxide were then made to remove any unbound ligand. Reference cells were modified using amine coupling chemistry, omitting ligand injection.
Increase in signal (RU) is proportional to an increase in binding events between the analyte and ligand surface. The injection was then stopped, and dissociation was measured. The resulting sensorgram has reference surface and blank injection subtracted prior to curve fitting. Measured association (ka, 1/M^s−1) and dissociation (kd, s^−1) were fit to a 1:1 binding model to calculate an equilibrium dissociation constant, KD(M) for each analyte. Equilibrium binding constants (KD) and binding inhibition constants (Ki) estimated from surface plasmon resonance (SPR) or DELFIA® binding assays for exemplary compounds as set forth in Table 2A.
In this example, affinity for mouse Nectin-4 (FIG. 3A) and human Nectin-4 (FIG. 3B) were measured using a 1:1 binding model at twenty-five degrees Celsius. In both of FIGS. 3A and 3B, lines on graphs were labeled from top to bottom, beginning with letter a, and the corresponding concentration was noted to the right of the figure.

mouse Nectin-4 = molecular target: T2, mouse Nectin-4 (Mus musculus, UniProt Q8R007); assay: Surface plasmon resonance (Biacore T200) binding to mouse Nectin-4; settings: 1:1 binding model, twenty-five degrees Celsius
T2 sequence (Q8R007 31-508): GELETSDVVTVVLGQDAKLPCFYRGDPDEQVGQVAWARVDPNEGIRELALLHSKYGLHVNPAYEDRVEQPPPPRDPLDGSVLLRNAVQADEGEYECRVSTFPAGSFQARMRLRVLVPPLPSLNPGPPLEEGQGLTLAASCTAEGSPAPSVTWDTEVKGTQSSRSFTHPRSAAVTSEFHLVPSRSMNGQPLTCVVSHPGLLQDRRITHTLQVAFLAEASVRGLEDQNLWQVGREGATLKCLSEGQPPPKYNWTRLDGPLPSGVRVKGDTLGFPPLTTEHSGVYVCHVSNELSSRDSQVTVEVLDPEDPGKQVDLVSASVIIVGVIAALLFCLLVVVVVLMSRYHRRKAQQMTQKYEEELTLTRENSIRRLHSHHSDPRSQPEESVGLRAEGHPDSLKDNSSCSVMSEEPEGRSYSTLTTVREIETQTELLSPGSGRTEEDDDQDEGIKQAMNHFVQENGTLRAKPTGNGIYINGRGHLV
Method: as §1, §2
Surface plasmon resonance (SPR) analyses were performed using Biacore T200 (GE Healthcare). Target protein (“ligand”) was immobilized to a CM5 Series S sensor chip (Cytiva) using amine-coupling chemistry. Running buffer was 0.05% Surfactant P20 in HEPES buffered saline (HBS-P), pH 7.4 (Cytiva). Immobilization was performed at 25° C. Carboxyl groups in each flow cell were activated using a 1:1 mixture of 0.4 M 1-ethyl-3-(3-dimethylaminopropyl)-carbodiimide in water (EDC) and 0.1 M N-hydroxysuccinimide in water (NHS) for 7 minutes. The ligand was prepared in 10 mM Sodium acetate pH 5 (Cytiva). Pulsatile injections were made to target a specific immobilization level. Any remaining amine-reactive esters on the chip surface were blocked with a 7-minute injection of 1 M ethanolamine, pH 8.5. […]
Increase in signal (RU) is proportional to an increase in binding events between the analyte and ligand surface. The injection was then stopped, and dissociation was measured. […] Measured association (ka, 1/M^s−1) and dissociation (kd, s^−1) were fit to a 1:1 binding model to calculate an equilibrium dissociation constant, KD(M) for each analyte. […]
In this example, affinity for mouse Nectin-4 (FIG. 3A) and human Nectin-4 (FIG. 3B) were measured using a 1:1 binding model at twenty-five degrees Celsius. […]

[1] = previously published, Challita-Eid et al Cancer Res (2016); cited from earlier work
[2] = test system: HT1376 urothelial cancer cells; assay: In vitro cell cytotoxicity assay of actinium-225 radioconjugates (CellTiter-Glo); format: cell-based; settings: compound radiolabeled with 225Ac, 24 hours treatment, 4-5 days regrowth, cell viability
Method: Cytotoxicity to actinium-225 radioconjugates was assessed in HT1376 urothelial cancer cells. Cells were seeded in 96-well plates at densities of 250 to 1000 cells per well two days prior to treatment. On the day of treatment actinium-225 radioconjugates were diluted in culture medium to concentrations ranging from 0.0001 to 100 uCi/mL and treatment solutions were incubated with cells for 24 hours. At the end of the treatment period, the treatment solution was removed, and fresh culture medium was replenished for the regrowth period of the assay that lasted 4-5 days. At the end of the regrowth period the culture medium was removed and viability was assessed by CellTiter-Glo (Promega, Waltham MA) luminescent assay and the plates were read on a Perkin Elmer Enspire multimode plate reader. Data were normalized to treatment controls and plotted as non-linear sigmoidal dose response curves to determine the effective concentration for 50% reduction in cell viability.

## {DOTA-PEG4}-CEYDEEFFAGLKRLRGGDICYYIKKKFDKVPDLCIEEILDKLGC (disulfide 1-34, 20-44) [Compound C12]
Human Nectin-4
  kd (dissociation): 0.01697 s⁻¹
Human Nectin-4; read-out: KD
  Kd: 10.5 nM
Mouse Nectin-4
  kd (dissociation): 0.02625 s⁻¹

## enfortumab vedotin
[1]
  PK DATA (t½ - min): 2,476.8 min
  PK DATA (t½): 41.3 h

## C214 ({DOTA‑PEG4}-CEYDEEFFTALKRLRGGDICYYIKKKFDYLPKLCIEEILDNLGC-NH2; disulfide 1-34, 20-44) [Compound C214]
[2]
  EC50 (microcurie/milliliter) for Ac-225 radioconjugates: 0.014 microcurie/milliliter

## Ac-CEYDEEFFAGLKRLRGGDICYYIKKKFDKVPDLCIEEILDKLGC-OH (disulfide 1-34, 20-44) [Compound C9]
Human Nectin-4
  kd (dissociation): 0.02271 s⁻¹
Mouse Nectin-4
  kd (dissociation): 0.02134 s⁻¹

— patent US20260034253A1, “NECTIN-4 MINIPROTEIN CONJUGATES” (Aktis Oncology, Inc., priority 2022, published 2026)
